Patent US20160178605A1, “Electrical Cell-substrate Impedance Sensor (ECIS)” (priority 2015, published 2016)

Test system: MCF-7 cells
Experiment: SiNW-ECIS impedance and capacitance response of MCF-7 cells to antitubulin drugs
Type: cell-based, human
Conditions: PTX 0.1 nano-moles per liter; for normalized capacitance change (ΔC %) vs control sample / normalized impedance change (ΔZ %) vs control sample: MCF-7, 2 hours (T1) after drug incubation; for normalized capacitance change (ΔC %) vs control sample / normalized impedance change (ΔZ %) vs control sample / change in norm of impedance of treated cells between T1 and T2 / norm of capacitive changes, control sample more than drug treated values: ABZ 2.1 nano-moles per liter; for normalized impedance change (ΔZ %) vs control sample: mean; for norm of capacitive changes, control sample more than drug treated values: MCF-7, 6 hours (T2) after drug incubation
Procedure: In this example, the diagnostic response of cells membrane to extremely low dose of antitubulin drugs is investigated. Initially, MCF-7 cell lines, isolated from grade I human breast tumors, were obtained from the National Cell Bank of Iran (Pasteur Institute). Then, cells were maintained in a CO2 incubator (37° C., 5% CO2) in RPMI-1640 medium supplemented with 5% fetal bovine serum, and 1% penicillin/streptomycin. The fresh medium was replaced every other day. Then, the cultured cells were dropped on the surface of the SiNW-ECIS, designed and fabricated pursuant to teachings of the present application. Prior to each experiment, cells were trypsinized to be detached from the substrate and resuspended on the SiNW surface. To minimize the effect of trypsinization, the procedure may last for less than 4 minutes at room temperature of about 20° C. The samples were held in an incubator for about 4 hours to achieve cells attachment on the SiNWs. Thereafter, the ABZ drug with low concentrations of about 2.1 nano-moles per liter and the PTX drug with low concentrations of about 0.1 nano-moles per liter were added to individual samples. Finally, the signal recording and biological assays were investigated about 2 hours and 6 hours after the drug treatment (6 hours and 10 hours after the beginning of culturing process).
Referring to FIGS. 12A-12G, comparative normalized diagrams of impedance (designated by ΔZ % and represented by solid black lines) and capacitance changes (designated by ΔC % and represented by dashed grey lines) are illustrated for MCF-7 cells seeded on SiNW electrodes after treating by 2.1 nano-moles per liter of ABZ and 0.1 nano-moles per liter of PTX. The time interval between the drug incubation and the signal extraction are 2 hours (designated by T1) and 6 hours (designated by T2). In addition, the same diagrams are plotted for control sample prepared with no drug treatment stage.
According to the method described in the present example, the samples were maintained in an incubator so that the signal extraction was repeated 10 hours after cells dropping (6 hours after drug incubation for treated samples) to monitor the time evolution of drug induced MT polymerization/depolymerization on bioelectrical response of the membrane.

[1] = MCF-7, 2 hours (T1) vs 6 hours (T2) after drug incubation

Q: With `CCCSc1ccc2nc(NC(=O)OC)[nH]c2c1` [ABZ, Albendazole] as the compound, how does the “normalized capacitance change (ΔC %) vs control sample” value read?
A: 70%

Q: What about the “normalized impedance change (ΔZ %) vs control sample” value of the same compound?
A: 25%

Q: And the “change in norm of impedance of treated cells between T1 and T2” value [1]?
A: about 60%

Q: What about the “norm of capacitive changes, control sample more than drug treated values” of the same compound?
A: about 90%

Q: For `CC(=O)O[C@H]1C(=O)[C@@]2(C)[C@H]([C@H](OC(=O)c3ccccc3)[C@]3(O)C[C@H](OC(=O)[C@H](O)[C@@H](NC(=O)c4ccccc4)c4ccccc4)C(C)=C1C3(C)C)[C@]1(OC(C)=O)CO[C@@H]1C[C@@H]2O` [PTX, Paclitaxel], which “normalized capacitance change (ΔC %) vs control sample” value is on record?
A: about 60%

Q: And the “normalized impedance change (ΔZ %) vs control sample” value?
A: about 50%

Q: And the “change in norm of impedance of treated cells between T1 and T2” value [1]?
A: 15%

Q: And the “time dependent variation in capacitive behavior between T1 and T2” value [1]?
A: about 85%

Q: What about the “norm of capacitive changes, control sample more than drug treated values” of the same compound?
A: ~75%
